The target of the test is Histone deacetylase. Type of test: protein assay.

The results in this text go back to ChEMBL document CHEMBL1148417, “Thiol-based SAHA analogues as potent histone deacetylase inhibitors” (Bioorg Med Chem Lett, 2004).

One may read the IC50 as the concentration that inhibits the measured activity by half. A higher IC50 goes with a need for much substance.

Description: In vitro inhibitory activity against human histone deacetylase (HDAC) using HeLa nuclear extract

In turn, `O=C(CCCCCCNCCS)Nc1ccccc1.O=C(O)C(F)(F)F` yielded an IC50 of over 100 µM. As for `CSCCCCCCC(=O)Nc1ccccc1`, the figure is over 100 µM.
